The target of assay [1] is native, endogenous murine BACE1 (Mus musculus (Mouse), UniProt P56818). As to the kind of experiment: PDAPP primary neuronal assay (Abeta ELISA). The class given is cell-based. The note with it: primary cortical neurons from PDAPP embryos. On the procedure: For in vitro enzymatic and cellular assays, test compounds are prepared in DMSO to make up a 10 mM stock solution. […] A confirmatory whole cell assay is also run in primary neuronal cultures generated from PDAPP transgenic embryonic mice. […] After 2 days in vitro, culture media is replaced with serum free DMEM/F12 (1:1) containing B27 supplement and 2 μM (final) of Ara-C (Sigma, C1768). At day 5 in vitro, neurons are incubated at 37° C. for 24 h in the presence/absence of inhibitors (diluted in DMSO) at the desired concentration. At the end of the incubation, conditioned media are analyzed for evidence of beta-secretase activity, for example, by analysis of Abeta peptides. […] Both Abeta 1-40 and Abeta 1-42 ELISAs use biotinylated 3D6 as the reporting antibody. The concentration of Abeta released in the conditioned media following the compound treatment corresponds to the activity of BACE1 under such conditions.
In general terms: An ELISA detects its analyte on a solid surface through an enzyme-linked reagent.

Assay [2] addresses human BACE1(1-460):Fc (Homo sapiens (Human), UniProt P56817). As to the kind of experiment: BACE1 FRET assay. The class given is biochemical. The note with it: purified recombinant human BACE1, FRET; Mean ± SEM. How it is done:
For in vitro enzymatic and cellular assays, test compounds are prepared in DMSO to make up a 10 mM stock solution.
This fusion protein of BACE1(1-460) and human Fc, named huBACE1:Fc, is constructed into the pJB02 vector. Human BACE1(1-460):Fc (huBACE1:Fc) is transiently expressed in HEK293 cells. 250 μg cDNA of each construct is mixed with Fugene 6 and added to 1 liter HEK293 cells. Four days after the transfection, conditioned media are harvested for purification. huBACE1:Fc is purified by Protein A chromatography. The enzyme is stored at −80° C. in small aliquots.
Serial dilutions of test compounds are prepared as described above. Compounds are further diluted 20× in KH2PO4 buffer. Ten μL of each dilution is added to each well on row A to H of a corresponding low protein binding black plate containing the reaction mixture (25 μL of 50 mM KH2PO4, pH 4.6, 1 mM TRITON® X-100, 1 mg/mL Bovine Serum Albumin, and 15 μM of FRET substrate) (See Yang, et. al., J. Neurochemistry, 91(6) 1249-59 (2004)). The content is mixed well on a plate shaker for 10 minutes. […] The RFU of the mixture at time 0 is recorded at excitation wavelength 355 nm and emission wavelength 460 nm, after brief mixing on a plate shaker. […] The RFU at the end of incubation is recorded with the same excitation and emission settings used at time 0. […]

In assay [3] the target is native endogenous human BACE1 (Homo sapiens (Human), UniProt P56817). As to the kind of experiment: HEK293Swe whole cell assay (Abeta ELISA). It counts as cell-based. The note with it: HEK293/APP751sw cells. On the procedure:
For in vitro enzymatic and cellular assays, test compounds are prepared in DMSO to make up a 10 mM stock solution. The stock solution is serially diluted in DMSO to obtain a ten-point dilution curve with final compound concentrations ranging from […] to 1 nM in a 96-well round-bottom plate before conducting the in vitro enzymatic and whole cell assays. […]
Cells (HEK293/APP751sw at 3.5×10^4 cells/well, containing 200 μL culture media, DMEM containing 10% FBS) are incubated at 37° C. for 4 to 24 h in the presence/absence of inhibitors (diluted in DMSO) at the desired concentration. At the end of the incubation, conditioned media are analyzed for evidence of beta-secretase activity, for example, by analysis of Abeta peptides. Total Abeta peptides (Abeta 1-x) are measured by a sandwich ELISA, using monoclonal 266 as a capture antibody and biotinylated 3D6 as reporting antibody. Alternatively, Abeta 1-40 and Abeta 1-42 peptides are measured by a sandwich ELISA, using monoclonal 2G3 as a capture antibody for Abeta 1-40, and monoclonal 21F12 as a capture antibody for Abeta 1-42. […]

The target of assay [4] is BACE (the beta-secretase enzyme) (Mus musculus (Mouse), UniProt P56818). Nature of the assay: In vivo inhibition of beta-secretase in PDAPP mice (brain Abeta 1-x). As to conditions: 3 hours, young female PDAPP mice, vs vehicle. How it is done: Several animal models, including mouse, rat, guinea pig, dog, and monkey, may be used to screen for inhibition of beta-secretase activity in vivo following compound treatment Animals used in this invention were transgenic PDAPP mice as described in Games et al., Nature 373, 523-527 (1995), which have been useful to analyze in vivo inhibition of Abeta production in the presence of inhibitory compounds. Two month old PDAPP mice are administered compound formulated in N-methylpyrolidone (Pharmasolve®) in water. Three hours following the administration of compound, animals are sacrificed, and brains are removed for analysis of Abeta fragments. (See Dovey, et al., Journal of Neurochemistry, 76, 173-181 (2001); and Johnson-Wood, et al., Proc. Natl. Acad. Sci. USA, 94, 1550-1555 (1997)).
For standard in vivo pharmacology studies, animals are dosed with various concentrations of compound and compared to a vehicle-treated control group dosed at the same time. At the end of the test period, animals are sacrificed and brain tissues are analyzed for the presence of Abeta peptides by specific sandwich ELISA assays. “Abeta 1-x peptide” as used herein refers to the sum of Abeta species that begin with residue 1 and end with a C-terminus greater than residue 28. This detects the majority of Abeta species and is often called “total Abeta”.
Significant and dose-responsive reduction of total Abeta after oral administration of the compound of Example 8 is consistent with a mechanism of BACE (the beta-secretase enzyme) inhibition in vivo. […] As such, compounds of the present invention are efficacious inhibitors of BACE.

Setting [5] is: Abeta 1-40, read-out: PDAPP Neuron A-beta (1-40) ELISA IC50.
[6] abbreviates: Abeta 1-42, read-out: PDAPP Neuron A-beta (1-42) ELISA IC50.

pIC50: −log10 of the molar value. Where a name gives a salt, the structure may show the parent alone. Read-outs that look alike come from different tables or passages of the source.

Chain of native, endogenous murine BACE1 (P56818 46-501): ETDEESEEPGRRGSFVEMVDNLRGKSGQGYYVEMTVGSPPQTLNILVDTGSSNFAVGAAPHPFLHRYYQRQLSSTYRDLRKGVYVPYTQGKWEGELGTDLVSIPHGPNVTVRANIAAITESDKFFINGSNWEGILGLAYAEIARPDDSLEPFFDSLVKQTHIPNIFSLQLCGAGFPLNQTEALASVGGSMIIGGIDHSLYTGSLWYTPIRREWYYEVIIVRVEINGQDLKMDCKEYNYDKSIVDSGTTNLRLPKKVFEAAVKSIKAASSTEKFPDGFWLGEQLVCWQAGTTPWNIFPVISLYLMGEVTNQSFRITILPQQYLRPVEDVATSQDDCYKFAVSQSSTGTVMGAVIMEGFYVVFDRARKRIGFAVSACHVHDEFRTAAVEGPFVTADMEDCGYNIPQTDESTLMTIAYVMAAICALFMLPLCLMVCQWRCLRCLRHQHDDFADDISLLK
Chain of BACE (the beta-secretase enzyme) (P56818 46-501): as above
Chain of human BACE1(1-460):Fc (P56817 22-460): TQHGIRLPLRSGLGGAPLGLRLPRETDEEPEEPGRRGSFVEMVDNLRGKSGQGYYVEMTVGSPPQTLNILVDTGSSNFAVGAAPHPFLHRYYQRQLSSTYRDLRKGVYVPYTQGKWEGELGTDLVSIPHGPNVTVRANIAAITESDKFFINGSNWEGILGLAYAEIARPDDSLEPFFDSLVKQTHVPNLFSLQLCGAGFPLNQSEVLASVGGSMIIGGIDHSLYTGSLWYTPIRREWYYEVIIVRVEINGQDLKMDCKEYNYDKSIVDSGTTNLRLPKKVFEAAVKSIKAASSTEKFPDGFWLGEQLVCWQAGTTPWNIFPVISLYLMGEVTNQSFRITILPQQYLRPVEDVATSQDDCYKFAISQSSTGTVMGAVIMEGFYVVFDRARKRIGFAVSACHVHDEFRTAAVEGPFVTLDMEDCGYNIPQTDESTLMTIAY
Chain of native endogenous human BACE1 (P56817 46-501): as the sequence (P56818 46-501) above, with S6P, I162V, I165L, T180S, A182V, V340I, A393L, H443Q counted along it

Take `CC(C)(O)c1nc(N2C[C@H]3CSC(N)=N[C@@]3(c3ccc(F)cn3)C2)ncc1F` [Example 12, 2-[2-[(4aR,7aR)-2-Amino-7a-(5-fluoro-2-pyridyl)-4,4a,5,7-tetrahydropyrrolo[3,4-d][1,3]thiazin-6-yl]-5-fluoro-pyrimidin-4-yl]propan-2-ol hydrochloride]: the pIC50 (commonly −log10 of the IC50, conventionally taken in molar units) in assay [1] (setting [5]) is 6.96; in assay [1] (setting [6]), 7.08.
In the case of `CC(C)(O)c1nc(N2C[C@H]3CSC(N)=N[C@@]3(c3cccnc3)C2)ncc1F` [Example 15, 2-[2-[(4aR,7aS)-2-Amino-7a-(3-pyridyl)-4,4a,5,7-tetrahydropyrrolo[3,4-d][1,3]thiazin-6-yl]-5-fluoro-pyrimidin-4-yl]propan-2-ol hydrochloride], the pIC50 in assay [2] is 7.03; in assay [1] (setting [5]) it was 7.01; in assay [1] (setting [6]) it was 7.10.
As to `CC(C)(O)c1nc(N2C[C@H]3CSC(N)=N[C@@]3(c3cnccn3)C2)ncc1F.Cl` [Example 8, 2-[2-[(4aR,7aR)-2-Amino-7a-pyrazin-2-yl-4,4a,5,7-tetrahydropyrrolo[3,4-d][1,3]thiazin-6-yl]-5-fluoro-pyrimidin-4-yl]propan-2-ol hydrochloride], the pIC50 is 6.98 in assay [2]; 6.62 in assay [3] (Abeta 1-40, read-out: HEK 293 Swe A-beta (1-40) ELISA IC50); 6.40 in assay [3] (Abeta 1-42, read-out: HEK 293 Swe A-beta (1-42) ELISA IC50); 6.34 in assay [1] (setting [5]); 6.39 in assay [1] (setting [6]). Besides, the “Abeta 1-x peptide levels reduced in brain cortex” value in assay [4] (10 mg/kg oral dose) is “approximately 23%”; in assay [4] (30 mg/kg oral dose) it was roughly 53%. The “Abeta 1-x peptide levels reduced in brain hippocampus” value was “approximately 19%” in assay [4] (10 mg/kg oral dose) and roughly 46% in assay [4] (30 mg/kg oral dose).

These data come from patent US9328124B2, “BACE inhibitors” (Eli Lilly and Company, priority 2012, dated 2016).
